{
  "source": "paper PMC3436892",
  "about": "“Novel African Trypanocidal Agents: Membrane Rigidifying Peptides” (PLoS ONE, 2012)",
  "key": {"[1]": {"assay": "Parallax analysis of tryptophan penetration depth", "assay_type": "physicochemical", "settings": "500 nM peptide, PBS, 37°C, 22 h", "method": "The hydrocarbon penetration depth of tryptophans spaced throughout synthetic peptides corresponding to SHP-1 or SHP-3 (Table S1) was determined by parallax analysis with brominated phosphatidylcholine liposomes. Large unilamellar liposomes composed of egg phosphatidylcholine and 10 mol % 1-palmitoyl-2-(6,7-dibromo)stearoyl-sn-glycero-3-phosphocholine (shallow quencher) or 1-palmitoyl-2-(9,10-dibromo)stearoyl-sn-glycero-3-phosphocholine (deep quencher) were constructed by hydration of a thin dry lipid film with phosphate buffered saline. Resulting multilamellar liposomes were made unilameller via extrusion through polycarbonate filters with 0.1 µm pores. Peptides (500 nM) were incubated with 200 µg/ml liposomes in phosphate buffered saline at 37°C for 22 h. Tryptophan fluorescence at 357 nm was measured from at least triplicate trials in the PerkinElmer Life Sciences LS55 spectrofluorometer and an excitation wavelength of 280 nm for SHP-1 and 290 nm for SHP-2, 10 nm excitation and 9 nm emission slit widths. The distance of tryptophans from the bilayer center (ZCF) is calculated from the equation [12]: [drawing 1] Where LC1 is the distance from the center of the bilayer to the shallow quencher, in this case 10.8 Å for 6,7-dibromo-PC [25], F1 is the intensity of tryptophan in the presence of the shallow quencher and F2 is the tryptophan intensity in the presence of the deep quencher, C is the mole fraction of quencher divided by the area of individual phospholipid (70 Å^2), and L21 is the difference in the depth of the two quenchers (2.7 Å). The hydrocarbon insertion depth of tryptophans is then given by one half the bilayer thickness, 29 Å [25], minus ZCF."}, "[2]": {"system": "Live BSF T. b. brucei", "settings": "previously reported; cited from earlier work", "text": "Treatment of BSF African trypanosomes with SHP results in multiple physiological alterations. Addition of SHP-1 to BSF trypanosomes, which were subsequently immobilized in gelatin, decreases the fraction of laterally mobile surface exposed VSG (Fig. 2c). This effect may be directly due to increased membrane rigidity, or indirectly due to a decrease in the mobility of membrane spanning proteins and potential interactions with the VSG. Another physiological consequence, that may or may not be related to membrane rigidification, is SHP-induced changes in cell motility. Previously we reported that ..."}, "[3]": {"system": "Live BSF T. b. brucei", "assay": "Trypanosome motility scoring by DIC microscopy", "assay_type": "cell-based, Trypanosoma brucei brucei", "settings": "40 µM SHP, 37°C, 1×10^7 cells/mL, HMI 9 with 10 % fetal bovine serum, DIC microscopy, at least duplicate (Fig. 2d)", "method": "All images and videos were acquired with an Axio Observer Z1 equipped with an AxioCam MRm controlled by AxioVision 4.6 software. Videos were acquired with live cells at a density of 1×10^7 cells/mL in HMI 9 media with 10 % fetal bovine serum, incubated with 40 µM SHP at 37°C. Trypanosomes were visualized at magnification 63 × and videos were recorded with 100-ms acquisition times. The motility of BSF trypanosomes was scored directly or from video playback. Trypanosome motility was classified as normal, hyperactive or constricted as described previously. An example of a trypanosome scored as normal is shown in Movie S1. […] Data in figure 2D is shown as the average of at least duplicate trials with standard deviations."}, "[4]": {"system": "interfacial region of the plasma membrane of BSF T. b. brucei", "assay": "TMA-DPH fluorescence anisotropy (interfacial membrane rigidity)", "assay_type": "cell-based, Trypanosoma brucei brucei", "settings": "live BSF cells 3×10^6 cells/mL in PBS, 0.5 µM TMA-DPH, 37°C, increasing SHP concentrations, triplicate (Fig. 2b)", "method": "The plasma membrane rigidity of live T. b. brucei was determined by measuring the fluorescence depolarization of diphenyl-1,3,5- hexatriene p-toluenesulfonate (DPH) or 1-(4-trimethylammoniumphenyl)-6-diphenyl-1,3,5- hexatriene p-toluenesulfonate (TMA-DPH; Invitrogen T204). Cells were washed 3 times with and resuspended in phosphate buffered saline at a density of 3×10^6 cells/mL. The anisotropic probes were added to a final concentration of 0.5 µM and allowed to intercalate into the cell membrane for 1 h in the dark. Anisotropic values were acquired via the software function of a PerkinElmer Life Sciences LS55 spectrofluorometer. Samples were excited at 358 nm, and emission was read at 430 nm, with 10-nm excitation and emission slit widths. Temperature was maintained at 37°C by means of the PerkinElmer LS55 Biokinetics accessory. Data were corrected for light scattering with an unlabeled sample of cells, and anisotropy was calculated according to the equation r = (IVV - GIVH)/(IVV + 2GIVH), where r is the anisotropy value, IVV is the emission intensity acquired with the excitation- and emission-polarizing filters set vertically, G is the instrument correction factor, and IVH is the emission intensity acquired with the excitation-polarizing filter set vertically and the emission-polarizing filter set horizontally. […]"}, "[5]": {"system": "BSF T. b. brucei", "settings": "veterinary and human pathogenic BSF T. brucei; cited from earlier work", "text": "Specificity of SHP is mediated by a high degree of fluidity in the plasma membrane of BSF cells. […] Human cells, including erythrocytes, are refractory to SHP concentrations orders of magnitude higher than necessary to kill BSF T. brucei."}},
  "data": [
    {"sequence": "SDLGAVISLLLWGRQLFA [SHP-1, trypanocidal small hydrophobic peptide derived from an apolipoprotein, with characteristics of a secretory signal peptide]", "values": [
      {"measurement": "distance of tryptophan at position 1 from the membrane interface", "setting": "[1]; Trp-substituted variant W1, 200 µg/ml egg PC liposomes with 10 mol % 6,7- or 9,10-dibromo-PC, bilayer thickness 29 Å, at least triplicate", "result": "approximately 1.1 Å"},
      {"measurement": "distance of tryptophan at position 8 from the membrane interface", "setting": "[1]; Trp-substituted variant W8, 200 µg/ml brominated egg PC liposomes", "result": "approximately 7.8 Å"},
      {"measurement": "distance of tryptophan at position 18 from the membrane interface", "setting": "[1]; Trp-substituted variant W18, 200 µg/ml brominated egg PC liposomes", "result": "~2.0", "unit": "Å"},
      {"measurement": "distance of tryptophan at position 12 from the membrane interface", "setting": "[1]; native tryptophan, 200 µg/ml brominated egg PC liposomes", "result": "~5.1", "unit": "Å"},
      {"measurement": "F1/F2 ± S.D.", "setting": "[1]; ratio of tryptophan fluorescence intensity (357 nm) with shallow (6,7-dibromo-PC, F1) and deep (9,10-dibromo-PC, F2) quencher, 200 µg/ml liposomes, at least triplicate", "result": "0.9676 ± 0.0560"},
      {"measurement": "effect on motility of BSF trypanosomes", "setting": "[2]", "result": "initial hyperactivation followed by constricted motility and death"},
      {"measurement": "constriction of motility following hyperactivation", "setting": "[3]", "result": "subsequent constriction"},
      {"measurement": "hyperactivation of motility", "setting": "[3]", "result": "hyperactivation"},
      {"measurement": "interfacial rigidity of the plasma membrane (TMA-DPH fluorescence depolarization)", "setting": "[4]", "result": "increased the interfacial rigidity"},
      {"measurement": "susceptibility of BSF T. brucei to killing", "setting": "[5]", "result": "uniquely susceptible to killing"}
    ]}
  ]
}
